Consider six molecules from US20240165140A1, “MEDICATION FOR INHIBITING DNA-PKCS” (TSINGHUA UNIVERSITY, priority 2017, published 2024).

Experiment [1] concerns DNA-PKcs signaling pathway. Put plainly: Immunoblotting of DNA-PKcs signaling pathway activation induced by chemotherapeutic agent. In kind it is cell-based. The note with it: H1299 and A549 cells; for Level of the DNA-PKcs signaling pathway (p-DNA-PKcs (S2056), p-AKT (S473), p-P53 (S15)): single agent 1 h (Etoposide 10 μM, Endostatin 10 μg/ml, NU7026 10 μM); for Activation of the DNA-PKcs signaling pathway by Etoposide (p-DNA-PKcs (S2056), p-AKT (S473)): 10 μg/ml added 1 h before Etoposide 10 μM. The text has this:
Tumor cells (including non-small cell lung cancer H1299 and A549 cells) were divided into six treatment groups.
Tumor cells (including H1299 and A549 cells) were divided into six treatment groups.
In general terms: A western blot detects proteins with antibodies after separation by electrophoresis.

The test system of experiment [2] is H1299 and A549 cells. Description: Annexin V-FITC/PI apoptosis by flow cytometry with DNA-PKcs siRNA knockdown. Particulars: A549 (P53 wild-type) versus H1299 (P53-deficient); 1 μM versus 10 μM, 16 h. In kind it is cell-based. As to the method:
In this example, tumor cells (including H1299 and A549 cells) were divided into eight treatment groups. In the first four groups, cells were transfected with control siRNA, and in the last four groups, cells were transfected with siRNA that specifically knocked down DNA-PKcs. The siRNA sequence of DNA-PKcs is: forward 5′-[…]-3′ (SEQ ID NO: 5), reverse 5′-[…]-3′ (SEQ ID NO: 6). The siRNA transfection method was performed according to the instructions of the transfection reagent Lipofectamine 2000. Then, in the eight groups, the cells were treated with drugs. […] Cells were collected and operations were performed according to the instructions of Annexin V-FITC/PI Apoptosis Detection Kit. Apoptosis was detected by flow cytometry. A549 cells were P53 wild-type cells, and H1299 cells were P53-deficient cells.
In general terms: Flow cytometry measures light scatter and fluorescence of single cells or particles in a stream.

For experiment [3], the system named is tumor cells with normal P53 function (H1299-P53 and A549-NC). Put plainly: CCK8 cell activity, tumor cells with normal P53 function. It counts as cell-based. As to the method: (§1) First, a lentivirus kit (purchased from Shanghai Genepharma) was used to construct a P53 stably overexpressing H1299 cell line (H1299-P53) and a P53 stably knockdown A549 cell line […]. The P53 sequence targeted by the shRNA used to knock down P53 in A549 cells was 5′-[…]-3′ (SEQ ID NO: 4). Virus transfection and the construction of stable cell lines were performed according to the kit instructions. […] After treatment for 12 hours, the drug-containing medium was replaced with a normal medium and the cells were further cultured for 72 hours. Cell activity was measured according to the instructions of the CCK8 kit (Dojindo, Tokyo, Japan).
In this example, another chemical drug, Doxorubicin, was used to verify that Endostatin can enhance the sensitivity of P53-deficient tumor cells to chemotherapy. Operation process was the same as in Example 5.

Experiment [4] has as its system tumor cells with normal P53 function (H1299-P53, A549-NC). Description: Cell colony formation, tumor cells with normal P53 function. It counts as cell-based. Particulars: Etoposide 1 μM, 16 h; colonies after 14 days. As to the method:
After the treatment, the cells were digested with trypsin, counted, and re-plated in a six-well plate with 1000 cells per well. The cells were cultured in a normal medium for 14 days to form cell colonies.

For experiment [5] the test system is unchanged. Put plainly: PI staining apoptosis by flow cytometry, tumor cells with normal P53 function. In kind it is cell-based. The note with it: Etoposide 1 μM, 16 h. As to the method:
The apoptotic cells and adherent cells floating in the culture medium were collected, and the cells were suspended in 500 μl PBS containing 0.05 mg/ml propidium iodide (PI), stained for 15 min at room temperature in dark, and detected by flow cytometry (BD FACS Calibur). PI-positive cells represent apoptotic cells.

Experiment [6] deals with A375 cells. Put plainly: CCK8 cell activity, melanoma A375. Particulars: A375 (P53 wild type); Etoposide; operation process as in Example 5. It counts as cell-based. As to the method:
as §1
This example used two cell lines of another tumor type (melanoma), the MDA-MB-435S (P53 mutant) and A375 (P53 wild type) cell lines, to verify the regulatory function of Endostatin on the chemotherapeutic sensitivity of other types of tumor cells with different P53 status. Operation process was the same as in Example 5.

For experiment [7], the system named is mRNA levels of BAX, NOXA, PUMA, and P21. Description: Real-time PCR of pro-apoptotic molecules, tumor cells with normal P53 function. In kind it is cell-based. Particulars: H1299-P53, A549-NC; Etoposide 1 μM, 16 h. As to the method:
After the cells were treated as described above, the total RNA of the cells was extracted, and the relative changes in mRNA levels of BAX, NOXA, PUMA, and P21 in the cells were detected by real-time PCR.
(In qPCR the cycle at which signal appears reflects the starting amount.)

For experiment [8], the system named is H1299-NC tumor. Put plainly: Subcutaneous tumor growth in nude mice, H1299-NC. In kind it is in vivo. Particulars: Day 19, compared with control group, Endostatin 20 mg/kg i.p. once a day, Etoposide 2 mg/kg i.p. once every two days. As to the method:
(§2) Tumor-bearing nude mice were randomly divided into four groups with 6 to 8 animals for each group, and different drug treatments were performed. […] Tumor volume was measured every other day. 2 to 4 weeks after administration, the mice were sacrificed and the tumor tissue was removed for further use.

Experiment [9] relates to A549-shP53 tumor. Put plainly: Subcutaneous tumor growth in nude mice, A549-shP53. Particulars: A549-shP53, Day 27; compared with control group; Endostatin 20 mg/kg i.p. once a day, Etoposide 2 mg/kg i.p. once every two days. In kind it is in vivo. As to the method: as §2
Experiment [10] has as its system H1299-P53 tumor. Description: Subcutaneous tumor growth in nude mice, H1299-P53. It counts as in vivo. Particulars: H1299-P53, Day 19; compared with control group; Endostatin 20 mg/kg i.p. once a day, Etoposide 2 mg/kg i.p. once every two days. As to the method:
as §2

The test system of experiment [11] is A549-NC tumor. Put plainly: Subcutaneous tumor growth in nude mice, A549-NC. It counts as in vivo. The note with it: Day 27, compared with control group, Endostatin 20 mg/kg i.p. once a day, Etoposide 2 mg/kg i.p. once every two days. As to the method:
as §2

The subject of experiment [12] is H1299 mouse tumor model. Description: Survival of H1299 tumor-bearing mice. The note with it: administration as in Example 12, stopped after 25 days. It counts as in vivo. As to the method:
as §2
(§3) H1299 and A549 cells were cultured in a vigorous and proliferative state, and tumor collection, grouping, and administration methods were the same as in Example 12. The administration was stopped after 25 days, and the survival of the mice was recorded daily, and the survival curve of the mice was plotted.

Experiment [13] deals with A549 tumor-bearing mice (normal P53 function). Put plainly: Survival of A549 tumor-bearing mice. In kind it is in vivo. Particulars: A549, normal P53 function (FIG. 13B); compared with control group; administration as in Example 12, stopped after 25 days. As to the method: as §2, §3
The test system of experiment [14] is PCNA and DNA-PKcs protein in H1299-NC and A549-shP53 tumor tissues. Description: Immunofluorescence of PCNA and DNA-PKcs in tumor tissue, P53-deficient mouse tumor model. The note with it: H1299-NC and A549-shP53 tumors of Example 12; quantitative immunofluorescence. It counts as in vivo, nude mice. As to the method: as §2
(§4) The tumor tissue removed in Example 12 was fixed and embedded, and then sectioned. PCNA (a marker molecule indicating the vigorous proliferation status of tumor cells) and DNA-PKcs protein in tumor tissues were stained by immunofluorescence technique, and were observed and imaged with a laser confocal microscope (Nikon A1). The experimental results are shown in FIG. 14A-14D, in which blue represents the nucleus of DAPI-stained cells, green represents the DNA-PKcs protein, and red represents the PCNA protein. Taking the H1299-NC tumor tissue shown in FIG. 14A as an example, the first column on the left represents DNA-PKcs single staining, and the green area represents the DNA-PKcs protein expression level. The second column on the left represents the results of DNA-PKcs (green) merged with nucleus (blue), and the overlapping part is shown in cyan. The third column on the left represents PCNA single staining, and the red area represents the PCNA protein expression level, indicating the strength of tumor cell proliferation. […]

For experiment [15], the system named is PCNA and DNA-PKcs protein in H1299-P53 and A549-NC tumor tissues. Put plainly: Immunofluorescence of PCNA and DNA-PKcs in tumor tissue, mouse tumor model with normal P53 function. It counts as in vivo, nude mice. The note with it: H1299-P53 and A549-NC tumors of Example 12; quantitative immunofluorescence. As to the method:
as §2, §4

The test system of experiment [16] is DNA-PKcs, PARP, γH2AX and Caspase-3 signaling pathways. Put plainly: Immunoblotting of DNA damage and apoptotic pathway, P53-deficient tumor cells. In kind it is cell-based. The note with it: H1299-NC, A549-shP53; Endostatin 10 μg/ml, Etoposide 10 μM 16 h, z-DEVD-fmk 10 μM; Endostatin and z-DEVD-fmk added 1 h before Etoposide.
Description: In this example, tumor cells (H1299-NC, H1299-P53, A549-NC, A549-shP53) were divided into six treatment groups.

Consider `COc1cc([C@@H]2c3cc4c(cc3[C@@H](O[C@@H]3O[C@@H]5CO[C@@H](C)O[C@H]5[C@H](O)[C@H]3O)[C@H]3COC(=O)[C@H]23)OCO4)cc(OC)c1O` [Etoposide, reference compound], for which the “Level of the DNA-PKcs signaling pathway (p-DNA-PKcs (S2056), p-AKT (S473))” value in experiment [1] (Example 15, Etoposide 10 μM, 1 h, compared with control group) was “activated the level of the DNA-PKcs signaling pathway in H1299 and A549 cells”. Further, the “Level of the DNA-PKcs signaling pathway (p-DNA-PKcs (S2056), p-AKT (S473), p-P53 (S15))” value in experiment [1] (compared with control group) was “activated the level of the DNA-PKcs signaling pathway”. For the same molecule, the “Sensitivity of cells to the chemotherapeutic agent (apoptosis)” value in experiment [2] is “A549 cells were more sensitive to the chemotherapeutic agent”. Besides, the “Activity of tumor cells” value is listed as “could significantly inhibit the activity of tumor cells” in [3] (Etoposide 0, 0.1, 1, 10 μM, 12 hours treatment, 72 hours further culture) and “could significantly inhibit the activity of tumor cells” in experiment [6]. Further, in experiment [4], the “Colony-forming ability of tumor cells” value is given as “could significantly inhibit the colony-forming ability of tumor cells”. Also, the “Apoptosis of tumor cells (PI-positive cells)” value in experiment [5] is “could significantly promote the apoptosis of tumor cells”. Moreover, the “mRNA levels of pro-apoptotic molecules BAX, NOXA, PUMA, P21” value in [7] is listed as “could significantly up-regulate the above pro-apoptotic molecules”. The tumor suppression rate turned out to be 28.0% in experiment [8], 39.3% in [9], 30.0% in experiment [10] and 34.0% in experiment [11]. Further, the “median survival time longer than that of the control group” value in experiment [12] is 30.3%. The “Survival time of mice” value in experiment [13] is on record as “could prolong the survival time of the mice to some extent”. Besides, the “Tumor cell proliferation (PCNA) and protein level of DNA-PKcs in tumor tissue” value is “can attenuate tumor cell proliferation to a certain extent and reduce the protein level of DNA-PKcs” in experiment [14]; “could reduce the proliferation of tumor cells and reduce the protein level of DNA-PKcs” in experiment [15].

Regarding `COc1cccc2c1C(=O)c1c(O)c3c(c(O)c1C2=O)C[C@@](O)(C(=O)CO)C[C@@H]3O[C@H]1C[C@H](N)[C@H](O)[C@H](C)O1` [Doxorubicin, reference compound], the “Activity of tumor cells” value in [3] (Doxorubicin, operation process as in Example 5) is given as “could significantly inhibit the activity of tumor cells”.

Regarding `O=c1cc(N2CCOCC2)oc2c1ccc1ccccc12` [NU7026, reference compound], the “Level of the DNA-PKcs signaling pathway (p-DNA-PKcs (S2056), p-AKT (S473), p-P53 (S15))” value in experiment [1] (compared with control group) is “did not affect the level of the DNA-PKcs signaling pathway”.

z-DEVD-fmk [reference compound]: the “DNA-PKcs, PARP, γH2AX and Caspase-3 signaling pathway levels” value in [16] is “could reverse the synergistic effect of Endostatin and Etoposide to some extent”.

B1: PEG-Endostatin: natural human endostatin modified with 20 kDa mPEG-ALD at the N-terminal α-amino group (conjugate)
chain: MHSHRDFQPVLHLVALNSPLSGGMRGIRGADFQCFQQARAVGLAGTFRAFLSSRLQDLYSIVRRADRAAVPIVNLKDELLFPSWEALFSGSEGPLKPGARIFSFDGKDVLRHPTWPQKSVWHGSDPNGRRLTESYCETWRTEAPSATGQASSLLGGRLLGQSAASCHHAYIVLCIENSFMTASK
As to B1, the “Activation of the DNA-PKcs signaling pathway by Etoposide (p-DNA-PKcs (S2056), p-AKT (S473))” value in experiment [1] (Example 15, 1 h) is given as “inhibited the activation of the DNA-PKcs signaling pathway by Etoposide”.

B2: ZBP-Endostatin: endostatin variant obtained by adding 9 additional amino acids (MGGSHHHHH) to the N-terminus of natural human endostatin, SEQ ID NO: 3 (protein)
chain: MGGSHHHHHHSHRDFQPVLHLVALNSPLSGGMRGIRGADFQCFQQARAVGLAGTFRAFLSSRLQDLYSIVRRADRAAVPIVNLKDELLFPSWEALFSGSEGPLKPGARIFSFDGKDVLRHPTWPQKSVWHGSDPNGRRLTESYCETWRTEAPSATGQASSLLGGRLLGQSAASCHHAYIVLCIENSFMTASK
modifications: The amino acid sequence of ZBP-Endostatin
Take B2: the “Activation of the DNA-PKcs signaling pathway by Etoposide (p-DNA-PKcs (S2056), p-AKT (S473))” value in [1] (Example 15, 1 h) is listed as “inhibited the activation of the DNA-PKcs signaling pathway by Etoposide”.
